Assay results: patent US20140120083A1, “TREATMENT OF CANCERS USING PI3 KINASE ISOFORM MODULATORS” (INFINITY PHARMACEUTICALS, INC., priority 2012, published 2014)

What was measured:
Assay type in all cases: biochemical
PI3K γ = biological target: T1, PI3K γ (Homo sapiens, UniProt P48736); assay: In vitro IC50, PI3K γ
T1 construct: purchased Sigma
From the text: (§1) An exemplary system is PI 3-Kinase (human) HTRF™ Assay from Upstate.

PI3K α = biological target: T2, PI3K α (Homo sapiens, UniProt P42336); assay: In vitro IC50, PI3K α
T2 construct: purchased Upstate
From the text: as §1

PI3K δ = PI3K δ (Homo sapiens, UniProt O00329); assay: In vitro IC50, PI3K δ; parameters: purchased Upstate
From the text: as §1

PI3K β = PI3K β (Homo sapiens, UniProt P42338); assay: In vitro IC50, PI3K β
From the text: as §1

T1 sequence (P48736 whole entry): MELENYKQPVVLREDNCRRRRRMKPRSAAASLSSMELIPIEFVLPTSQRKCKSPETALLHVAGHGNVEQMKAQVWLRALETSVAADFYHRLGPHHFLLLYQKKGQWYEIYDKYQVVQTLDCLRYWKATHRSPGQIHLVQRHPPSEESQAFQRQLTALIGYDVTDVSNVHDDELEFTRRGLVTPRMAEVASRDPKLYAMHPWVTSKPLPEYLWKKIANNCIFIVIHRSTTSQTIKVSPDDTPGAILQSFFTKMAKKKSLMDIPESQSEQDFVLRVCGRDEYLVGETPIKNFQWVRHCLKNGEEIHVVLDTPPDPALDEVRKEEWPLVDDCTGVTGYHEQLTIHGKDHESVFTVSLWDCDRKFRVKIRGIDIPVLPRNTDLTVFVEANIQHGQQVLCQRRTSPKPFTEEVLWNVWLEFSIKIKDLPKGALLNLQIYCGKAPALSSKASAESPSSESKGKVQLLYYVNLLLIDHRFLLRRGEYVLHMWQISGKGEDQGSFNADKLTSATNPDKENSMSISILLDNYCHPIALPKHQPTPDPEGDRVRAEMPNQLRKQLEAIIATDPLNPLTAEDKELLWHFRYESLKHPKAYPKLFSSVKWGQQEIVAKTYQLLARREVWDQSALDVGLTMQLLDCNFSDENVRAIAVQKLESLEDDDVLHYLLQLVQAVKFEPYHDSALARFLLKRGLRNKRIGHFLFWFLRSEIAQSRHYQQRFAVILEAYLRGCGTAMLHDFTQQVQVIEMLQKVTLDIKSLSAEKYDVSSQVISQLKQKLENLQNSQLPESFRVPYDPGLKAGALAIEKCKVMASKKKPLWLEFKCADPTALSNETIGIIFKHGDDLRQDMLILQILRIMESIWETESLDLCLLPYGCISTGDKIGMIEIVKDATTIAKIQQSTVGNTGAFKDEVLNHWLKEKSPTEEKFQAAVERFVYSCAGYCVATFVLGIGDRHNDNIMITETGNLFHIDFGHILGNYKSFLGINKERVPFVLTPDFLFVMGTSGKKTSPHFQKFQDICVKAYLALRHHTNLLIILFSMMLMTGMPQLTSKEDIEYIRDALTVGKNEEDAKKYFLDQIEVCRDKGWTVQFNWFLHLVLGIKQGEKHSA
Sequence of PI3K β (P42338 whole entry): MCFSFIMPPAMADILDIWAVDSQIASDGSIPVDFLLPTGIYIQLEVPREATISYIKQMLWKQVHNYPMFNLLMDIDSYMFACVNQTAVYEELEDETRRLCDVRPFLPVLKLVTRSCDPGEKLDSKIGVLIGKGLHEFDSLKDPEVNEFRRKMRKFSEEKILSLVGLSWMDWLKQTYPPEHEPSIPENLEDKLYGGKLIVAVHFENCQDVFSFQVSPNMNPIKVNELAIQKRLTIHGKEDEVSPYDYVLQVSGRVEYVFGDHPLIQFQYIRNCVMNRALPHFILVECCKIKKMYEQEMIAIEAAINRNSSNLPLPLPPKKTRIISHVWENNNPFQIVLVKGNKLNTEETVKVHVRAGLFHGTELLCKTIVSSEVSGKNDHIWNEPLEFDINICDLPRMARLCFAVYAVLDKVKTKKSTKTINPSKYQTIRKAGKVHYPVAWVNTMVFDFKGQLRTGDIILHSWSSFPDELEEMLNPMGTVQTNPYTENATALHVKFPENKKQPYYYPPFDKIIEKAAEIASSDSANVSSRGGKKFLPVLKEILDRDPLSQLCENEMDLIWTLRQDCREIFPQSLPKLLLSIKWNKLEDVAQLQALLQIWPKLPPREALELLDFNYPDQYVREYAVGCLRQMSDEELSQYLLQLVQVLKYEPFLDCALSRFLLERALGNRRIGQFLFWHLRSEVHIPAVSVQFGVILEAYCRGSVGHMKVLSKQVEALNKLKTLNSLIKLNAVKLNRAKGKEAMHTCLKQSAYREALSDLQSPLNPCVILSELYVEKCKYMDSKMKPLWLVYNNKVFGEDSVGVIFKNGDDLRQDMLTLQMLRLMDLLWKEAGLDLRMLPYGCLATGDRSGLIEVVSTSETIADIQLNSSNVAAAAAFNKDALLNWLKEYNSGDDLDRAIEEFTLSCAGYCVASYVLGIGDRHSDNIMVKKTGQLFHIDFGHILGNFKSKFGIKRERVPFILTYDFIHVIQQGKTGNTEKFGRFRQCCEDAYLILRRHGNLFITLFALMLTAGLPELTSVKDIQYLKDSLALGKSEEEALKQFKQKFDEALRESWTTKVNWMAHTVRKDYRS
T2 sequence (P42336 whole entry): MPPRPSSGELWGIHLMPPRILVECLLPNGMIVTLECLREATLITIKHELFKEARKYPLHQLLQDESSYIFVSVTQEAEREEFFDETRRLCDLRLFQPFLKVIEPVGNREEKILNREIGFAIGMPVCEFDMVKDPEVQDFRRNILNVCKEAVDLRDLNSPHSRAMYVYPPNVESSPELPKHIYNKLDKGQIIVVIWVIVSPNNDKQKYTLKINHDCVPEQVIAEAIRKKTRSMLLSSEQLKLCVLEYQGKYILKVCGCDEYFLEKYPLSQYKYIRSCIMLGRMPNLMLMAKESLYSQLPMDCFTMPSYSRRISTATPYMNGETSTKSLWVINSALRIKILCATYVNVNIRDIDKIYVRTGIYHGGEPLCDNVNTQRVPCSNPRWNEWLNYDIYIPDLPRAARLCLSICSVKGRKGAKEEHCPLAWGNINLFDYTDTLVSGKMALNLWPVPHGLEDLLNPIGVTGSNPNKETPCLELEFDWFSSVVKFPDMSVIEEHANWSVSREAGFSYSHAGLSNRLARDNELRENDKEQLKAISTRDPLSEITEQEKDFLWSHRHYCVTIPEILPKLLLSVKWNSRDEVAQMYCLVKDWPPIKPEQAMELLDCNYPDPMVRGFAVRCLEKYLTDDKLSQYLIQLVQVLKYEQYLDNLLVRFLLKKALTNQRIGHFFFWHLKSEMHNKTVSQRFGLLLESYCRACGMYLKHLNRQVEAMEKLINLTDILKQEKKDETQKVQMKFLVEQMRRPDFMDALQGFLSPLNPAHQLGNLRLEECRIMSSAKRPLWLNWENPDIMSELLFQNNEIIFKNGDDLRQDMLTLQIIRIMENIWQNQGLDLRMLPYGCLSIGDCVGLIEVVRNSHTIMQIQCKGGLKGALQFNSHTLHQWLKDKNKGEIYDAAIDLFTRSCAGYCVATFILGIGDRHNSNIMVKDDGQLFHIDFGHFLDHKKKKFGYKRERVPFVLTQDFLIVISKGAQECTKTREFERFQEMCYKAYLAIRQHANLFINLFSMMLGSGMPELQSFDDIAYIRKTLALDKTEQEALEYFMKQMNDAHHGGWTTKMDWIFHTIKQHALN
T2 sequence (P27986 whole entry partner): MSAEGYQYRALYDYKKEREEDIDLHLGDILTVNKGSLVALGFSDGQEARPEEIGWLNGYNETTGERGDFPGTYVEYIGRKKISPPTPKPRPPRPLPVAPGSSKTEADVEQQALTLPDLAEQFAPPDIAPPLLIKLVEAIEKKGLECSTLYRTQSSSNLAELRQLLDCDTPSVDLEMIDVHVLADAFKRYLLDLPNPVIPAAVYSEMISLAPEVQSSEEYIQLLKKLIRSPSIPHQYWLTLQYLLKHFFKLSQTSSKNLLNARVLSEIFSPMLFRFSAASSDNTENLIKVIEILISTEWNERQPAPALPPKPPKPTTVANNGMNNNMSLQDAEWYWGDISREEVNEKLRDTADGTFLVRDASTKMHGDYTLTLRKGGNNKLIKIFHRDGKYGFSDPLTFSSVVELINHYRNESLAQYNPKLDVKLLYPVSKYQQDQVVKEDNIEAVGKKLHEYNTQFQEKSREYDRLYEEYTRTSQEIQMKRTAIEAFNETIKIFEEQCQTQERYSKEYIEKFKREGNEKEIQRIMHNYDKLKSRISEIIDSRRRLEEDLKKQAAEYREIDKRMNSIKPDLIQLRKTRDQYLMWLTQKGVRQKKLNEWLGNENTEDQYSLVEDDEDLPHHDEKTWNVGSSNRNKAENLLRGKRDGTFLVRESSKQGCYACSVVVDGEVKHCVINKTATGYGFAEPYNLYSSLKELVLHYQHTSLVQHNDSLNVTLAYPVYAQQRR
Sequence of PI3K δ (O00329 whole entry): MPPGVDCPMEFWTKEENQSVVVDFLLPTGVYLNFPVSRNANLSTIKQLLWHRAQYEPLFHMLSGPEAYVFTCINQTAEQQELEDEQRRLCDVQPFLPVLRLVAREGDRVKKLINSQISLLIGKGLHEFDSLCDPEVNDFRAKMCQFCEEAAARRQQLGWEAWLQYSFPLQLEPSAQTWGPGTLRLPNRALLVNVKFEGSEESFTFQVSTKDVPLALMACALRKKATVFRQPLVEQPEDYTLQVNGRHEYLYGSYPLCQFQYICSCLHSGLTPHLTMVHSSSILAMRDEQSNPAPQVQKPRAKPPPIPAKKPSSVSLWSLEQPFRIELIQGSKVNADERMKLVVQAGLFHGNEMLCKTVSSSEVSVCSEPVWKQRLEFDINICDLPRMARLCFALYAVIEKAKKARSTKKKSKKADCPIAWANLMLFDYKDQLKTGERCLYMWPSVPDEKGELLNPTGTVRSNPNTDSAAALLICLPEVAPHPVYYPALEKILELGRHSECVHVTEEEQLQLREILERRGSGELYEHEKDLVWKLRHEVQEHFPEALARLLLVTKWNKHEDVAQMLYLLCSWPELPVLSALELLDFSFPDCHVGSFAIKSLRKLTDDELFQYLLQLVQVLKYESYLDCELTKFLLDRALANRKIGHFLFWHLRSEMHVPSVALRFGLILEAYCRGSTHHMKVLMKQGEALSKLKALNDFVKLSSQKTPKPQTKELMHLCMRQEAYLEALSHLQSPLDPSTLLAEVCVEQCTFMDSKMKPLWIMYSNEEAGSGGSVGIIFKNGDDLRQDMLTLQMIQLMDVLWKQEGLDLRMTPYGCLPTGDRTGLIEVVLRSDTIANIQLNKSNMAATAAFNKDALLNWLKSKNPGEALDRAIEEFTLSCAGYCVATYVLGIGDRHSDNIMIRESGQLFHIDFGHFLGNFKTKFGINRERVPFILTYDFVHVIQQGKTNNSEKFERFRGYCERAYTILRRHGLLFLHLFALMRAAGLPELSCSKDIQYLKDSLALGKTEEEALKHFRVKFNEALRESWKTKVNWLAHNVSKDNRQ
Sequence of PI3K δ (P27986 whole entry partner): as the sequence (P27986 whole entry partner) above

| Compound | IC50 (PI3K γ) | IC50 (PI3K α) | IC50 (PI3K δ) | IC50 (PI3K β) |
| --- | --- | --- | --- | --- |
| COc1ccccc1-n1c(Cn2nc(C#C[C@@H](C)O)c3c(N)ncnc32)cc2cccc(C)c2c1=O [Compound 80] | < 1 µM | > 10 µM | < 0.1 µM | > 10 µM |
| Cc1cccc2cc([C@H](C)Nc3nc(N)nc4[nH]cnc34)n(-c3ccccc3)c(=O)c12 [Compound 323] | < 0.1 µM | < 1 µM | < 0.1 µM | < 0.1 µM |
| C[C@H](Nc1ncnc2[nH]cnc12)c1cc2cccc(Cl)c2c(=O)n1C1CC1 [Compound 270] | < 0.1 µM | < 1 µM | < 0.1 µM | < 0.1 µM |
| Cc1cccc2cc([C@H](C)Nc3ncnc4[nH]cc(C(N)=O)c34)n(-c3ccccc3)c(=O)c12 [Compound 288] | < 0.1 µM | < 1 µM | < 0.1 µM | < 0.1 µM |
| Cc1ccccc1-n1c(C(C)Nc2ncnc3[nH]cnc23)cc2cccc(C)c2c1=O (stereo not shown) [Compound 191] | < 0.1 µM | > 10 µM | < 0.1 µM | < 10 µM |
| Cc1cccc2cc([C@H](C)Nc3ncnc4[nH]c(O)nc34)n(-c3ccccc3)c(=O)c12 [Compound 263] | > 10 µM | > 10 µM | > 10 µM | > 10 µM |
| Cc1cccc2cc([C@H](C)Nc3ncnc4[nH]cnc34)n(-c3cccc(F)c3)c(=O)c12 [Compound 290] | < 0.1 µM | > 10 µM | < 0.1 µM | < 1 µM |
| Cc1ccccc1-n1c(Cn2nc(C(N)=O)c3c(N)ncnc32)cc2cccc(C)c2c1=O [Compound 298] | < 1 µM | > 10 µM | < 1 µM | < 10 µM |
| Cc1cccc2cc([C@@H](C)Nc3ncnc4[nH]cnc34)n(C3CCC3)c(=O)c12 [Compound 197] | < 10 µM | > 10 µM | > 10 µM | > 10 µM |
| Cc1cccc2cc([C@H](C)Nc3ncnc4[nH]cc(F)c34)n(C3CC3)c(=O)c12 [Compound 278] | < 0.1 µM | < 1 µM | < 0.1 µM | < 0.1 µM |
| Nc1ncnc2c1c(-c1cn[nH]c1)nn2Cc1cc2cccc(F)c2c(=O)n1-c1ccccc1F [Compound 189] | < 10 µM | > 10 µM | < 1 µM | > 10 µM |
| Cc1cccc2cc(Cn3nc(-c4cc(O)cc(F)c4)c4c(N)ncnc43)n(C3CC3)c(=O)c12 [Compound 101] | < 0.1 µM | < 1 µM | < 0.1 µM | < 0.1 µM |
| Cc1cccc2cc(Cn3nc(C#C[C@@H](C)O)c4c(N)ncnc43)n(-c3ccccc3Cl)c(=O)c12 [Compound 98] | < 1 µM | > 10 µM | < 0.1 µM | > 10 µM |
| Cc1cccc2cc(C(C)Nc3ncnc4[nH]cnc34)n(-c3c(F)cccc3F)c(=O)c12 (stereo not shown) [Compound 216] | < 1 µM | > 10 µM | < 0.1 µM | > 10 µM |
| C=Cc1nn(Cc2cc3cccc(C)c3c(=O)n2-c2ccccc2F)c2ncnc(N)c12 [Compound 179] | < 10 µM | > 10 µM | < 1 µM | > 10 µM |
| COC(=O)c1nn(CC2=Cc3cccc(C)c3C(=O)C2c2ccccc2C)c2ncnc(N)c12 (stereo not shown) [Compound 299] | < 10 µM | > 10 µM | < 1 µM | > 10 µM |
| CCC(Nc1ncnc2[nH]cnc12)c1cc2ccccc2c(=O)n1-c1ccccc1 (stereo not shown) [Compound 221] | < 10 µM | > 10 µM | < 0.1 µM | > 10 µM |
| Cc1cccc2cc(Cn3nc(C#C[C@@H](C)O)c4c(N)ncnc43)n(C(C)C)c(=O)c12 [Compound 61] | < 10 µM | > 10 µM | < 0.1 µM | < 10 µM |
| Cc1cccc2cc(Cn3nc(C#C[C@@H](C)O)c4c(N)ncnc43)n(-c3ccccc3O)c(=O)c12 [Compound 91] | < 10 µM | > 10 µM | < 0.1 µM | > 10 µM |

Further lines, results first:

| IC50 (PI3K γ) | IC50 (PI3K α) | IC50 (PI3K δ) | IC50 (PI3K β) | Compound |
| --- | --- | --- | --- | --- |
| < 0.1 µM | > 10 µM | < 1 µM | > 10 µM | Cc1ccccc1-n1c(Cn2nc(-c3ccn[nH]3)c3c(N)ncnc32)cc2cccc(C)c2c1=O [Compound 182] |
| < 0.1 µM | < 10 µM | < 0.1 µM | < 10 µM | Cc1ccccc1-n1c(Cn2nc(-c3ccc4nc(N)oc4c3)c3c(N)ncnc32)cc2cccc(C)c2c1=O [Compound 243] |
| < 1 µM | > 10 µM | < 0.1 µM | > 10 µM | Cc1cccnc1-n1c(Cn2nc(-c3cccc(O)c3)c3c(N)ncnc32)cc2cccc(C)c2c1=O [Compound 73] |
| < 1 µM | > 10 µM | < 1 µM | > 10 µM | Cc1ccccc1-n1c(Cn2nc(C#CC3CC3)c3c(N)ncnc32)cc2cccc(C)c2c1=O [Compound 14] |
| < 1 µM | > 10 µM | < 10 µM | > 10 µM | Cc1ccccc1-n1c(Cn2nc(-c3cccc(F)c3)c3c(N)ncnc32)cc2cccc(C)c2c1=O [Compound 41] |
| < 0.1 µM | > 10 µM | < 0.1 µM | < 10 µM | COc1ccccc1-n1c(Cn2nc(-c3cccc(O)c3)c3c(N)ncnc32)cc2cccc(C)c2c1=O [Compound 74] |
| < 0.1 µM | < 0.1 µM | < 0.1 µM | < 1 µM | CCn1c(Cn2nc(-c3ccc4nc(NC(C)=O)sc4c3)c3c(N)ncnc32)cc2cccc(C)c2c1=O [Compound 176] |
| < 10 µM | > 10 µM | < 1 µM | < 10 µM | CC(=O)Nc1nc2cc(-c3nn(Cc4cc5cccc(C)c5c(=O)n4-c4ccccc4C)c4ncnc(N)c34)ccc2s1 [Compound 274] |
| > 10 µM | > 10 µM | > 10 µM | > 10 µM | Cc1cccc2cc(Cn3nc(C4=CCOCC4)c4c(N)ncnc43)n(-c3ccccc3)c(=O)c12 [Compound 315] |
| < 1 µM | > 10 µM | < 0.1 µM | < 10 µM | Cc1cccc2cc(Cn3nc(-c4cn[nH]c4)c4c(N)ncnc43)n(-c3ccccc3F)c(=O)c12 [Compound 161] |
| < 1 µM | > 10 µM | < 0.1 µM | > 10 µM | Cc1cccc2cc(Cn3nc(-c4cnn(CCO)c4)c4c(N)ncnc43)n(-c3ccccc3F)c(=O)c12 [Compound 162] |
| < 0.1 µM | < 1 µM | < 0.1 µM | < 10 µM | Cc1ccccc1-n1c(Cn2nc(-c3ccc4oc(N)nc4c3)c3c(N)ncnc32)cc2cccc(C)c2c1=O [Compound 151] |
| < 1 µM | > 10 µM | < 1 µM | < 10 µM | COc1cccc(-c2nn(Cc3cc4cccc(C)c4c(=O)n3-c3ccccc3C)c3ncnc(N)c23)c1 [Compound 106] |
| < 0.1 µM | < 0.1 µM | < 0.1 µM | < 1 µM | Cc1cccc2cc(Cn3nc(-c4ccc5nc(N)sc5c4)c4c(N)ncnc43)n(-c3ccccc3)c(=O)c12 [Compound 252] |
| < 0.1 µM | > 10 µM | < 0.1 µM | < 10 µM | Cc1ccccc1-n1c(Cn2nc(-c3cn[nH]c3)c3c(N)ncnc32)cc2cccc(C)c2c1=O [Compound 160] |
